Key:
Assay type in all cases: in vivo
Piemarker [1] = assay: Herbicidal activity test for indoor post-emergence spraying on stems and leaves; design: key: grade level by weed remaining vs blank control, e.g. 5 = 10.1-15%; conditions: 150 g a.i./ha, visual inspection 21 days after treatment
Method: (§1) The post-emergence herbicidal activity test was performed with some of the N-benzylbenzamide-based compounds of general formula I or II with reference to the method of NY/T 1155.4-2006. […] After the sowing, the weed was moved to a greenhouse for regular cultivation. […] Then, the results were investigated by visual inspection 21 days after the treatments. […] Level 5: equivalent to 10.1 to 15% of the weed in the blank control area; Level 6: equivalent to 15.1 to 25% of the weed in the blank control area; Level 7: equivalent to 25.1 to 35% of the weed in the blank control area; Level 8: equivalent to 35.1 to 67.5% of the weed in the blank control area; and […]

Amaranthus retroflexus [2] = assay: as above; design: key: grade level by weed remaining vs blank control, e.g. 5 = 10.1-15%; conditions: 150 g a.i./ha, visual inspection 21 days after treatment
Method: as §1

Barnyard grass [3] = assay: as above; design: key: grade level by weed remaining vs blank control, e.g. 5 = 10.1-15%; conditions: 150 g a.i./ha, visual inspection 21 days after treatment
Method: as §1

Humulus scandens [4] = assay: as above; design: key: grade level by weed remaining vs blank control, e.g. 5 = 10.1-15%; conditions: 150 g a.i./ha, visual inspection 21 days after treatment
Method: as §1

green bristlegrass [5] = assay: as above; design: key: grade level by weed remaining vs blank control, e.g. 5 = 10.1-15%; conditions: 150 g a.i./ha, visual inspection 21 days after treatment
Method: as §1

Digitaria sanguinalis [6] = assay: as above; design: key: grade level by weed remaining vs blank control, e.g. 5 = 10.1-15%; conditions: 150 g a.i./ha, visual inspection 21 days after treatment
Method: as §1

Humulus scandens [7] = assay: Herbicidal activity test for indoor pre-emergence soil treatment; conditions: 150 g a.i./ha, visual inspection 21 days after treatment
Method: (§2) The herbicidal activity test for indoor pre-emergence soil treatment was performed with some of the N-benzylbenzamide-based compounds of general formula I or II with reference to the method of NY/T 1155.3-2006. Neutral sandy loam soil having an organic content of ≤2% was added to fill ⅘ of the pot, and the soil was completely moistened by infiltrating irrigation from the bottom of the pot. The seeds of the test weed were evenly spread on the soil surface, and then covered by 0.5 cm to 2.0 cm of soil depending on the seed size. Representative compounds in the examples were used to prepare emulsifiable concentrates (10%), and spray treatments to the soil were performed 24 hours after the sowing with the test agents diluted with water, at a spraying dosage of 150 g(a.i.)/ha. Then, the results were investigated by visual inspection 21 days after the treatments. The herbicidal activity of the agent was evaluated on a scale of 1-9 levels according to the symptoms and severity of damage to the test weeds.
(§3) Level 2: equivalent to 0 to 2.5% of the weed in the blank control area;
(§4) Level 3: equivalent to 2.6 to 5% of the weed in the blank control area;
(§5) Level 4: equivalent to 5.1 to 10% of the weed in the blank control area;
(§6) Level 5: equivalent to 10.1 to 15% of the weed in the blank control area;
(§7) Level 6: equivalent to 15.1 to 25% of the weed in the blank control area;
(§8) Level 7: equivalent to 25.1 to 35% of the weed in the blank control area;
(§9) Level 8: equivalent to 35.1 to 67.5% of the weed in the blank control area; and
(§10) Level 9: equivalent to 67.6 to 100% of the weed in the blank control area.

Portulaca oleracea = assay: Field test for weed control in a corn field; conditions: 150 g a.i./ha, after treatment
Method: (§11) The weed control efficacy field test was performed in a corn field with some of the N-benzylbenzamide-based compounds of general formula I or II with reference to the method of GB/T 17980.42-2000. […] Spray treatments were performed in the stage where 2 leaves to 5 leaves were grown for the corns after the sowing. Representative compounds in the examples were used to prepare emulsifiable concentrates (10%), and spray treatments were performed with the concentrates in water at a dosage of 150 g(a.i.)/ha, and repeated 4 times for each treatment, and the area was 20 m^2. Oil dispersion with 25% of mesotrione was used as a control agent and applied at a dosage of 150 g(a.i.)/h. […] The herbicidal activities of the agents were evaluated on a scale of 1-9 levels according to the symptoms and severity of damage to the test weeds.
as §3, §4, §5, §6, §7, §8, §9, §10

Amaranthus retroflexus [8] = assay: Field test for weed control in a corn field; conditions: 150 g a.i./ha, 30 days after treatment
Method: as §11, §3, §4, §5, §6, §7, §8, §9, §10

Chenopodium album = assay: Field test for weed control in a corn field; conditions: 150 g a.i./ha, after treatment
Method: as §11, §3, §4, §5, §6, §7, §8, §9, §10

Barnyard grass [9] = assay: Field test for weed control in a corn field; conditions: 150 g a.i./ha, 30 days after treatment
Method: as §11, §3, §4, §5, §6, §7, §8, §9, §10

green bristlegrass [10] = assay: Field test for weed control in a corn field; conditions: 150 g a.i./ha, after treatment
Method: as §11, §3, §4, §5, §6, §7, §8, §9, §10

Solanum nigrum = assay: Field test for weed control in a corn field; conditions: 150 g a.i./ha, 30 days after treatment
Method: as §11, §3, §4, §5, §6, §7, §8, §9, §10

goosegrass = assay: Field test for weed control in a corn field; conditions: 150 g a.i./ha, after treatment
Method: as §11, §3, §4, §5, §6, §7, §8, §9, §10

Digitaria sanguinalis [11] = assay: Field test for weed control in a corn field; conditions: 150 g a.i./ha, after treatment
Method: as §11, §3, §4, §5, §6, §7, §8, §9, §10

nutgrass flatsedge = assay: Field test for weed control in a corn field; conditions: 150 g a.i./ha, after treatment
Method: as §11, §3, §4, §5, §6, §7, §8, §9, §10

Acalypha australis = assay: Field test for weed control in a corn field; conditions: 150 g a.i./ha, after treatment
Method: as §11, §3, §4, §5, §6, §7, §8, §9, §10

Convolvulus arvensis = assay: Field test for weed control in a corn field; conditions: 150 g a.i./ha, after treatment
Method: as §11, §3, §4, §5, §6, §7, §8, §9, §10

Broadleaf weed = assay: Post-emergence herbicidal activity test in a paddy field; design: key: level scale; higher level = more weed left vs blank control; conditions: 150 g a.i./ha (penoxsulam control 250 g(a.i.)/h)
Method: (§12) The post-emergence herbicidal activity test was performed in a paddy field with some of the N-benzylbenzamide-based compounds of general formula I or II with reference to the method of GB/T 17980.40-2000. […] Spray treatments were performed in the stage where 4 leaves to 5 leaves were grown for the rice seedlings which was about 1 month after the sowing. Representative compounds in the examples were used to prepare emulsifiable concentrates (10%), and spray treatments were performed with the concentrates in water at a dosage of 150 g(a.i.)/ha, and repeated 4 times for each treatment, and the area was 50 m^2. 25 g/L of penoxsulam suspension was used as a control agent and applied at a dosage of 250 g(a.i.)/h. The results were investigated by a value estimating survey method 15 days and 30 days after the treatments. The relative weed population quantities were estimated by comparing each agent treated area with an adjacent blank control area, and the results of which were investigated with the following grading standard method using the overall coverage of the weed population as an indicator.
as §3, §4, §5, §6, §7, §8, §9, §10

Cyperaceae = assay: as above; design: key: level scale; higher level = more weed left vs blank control; conditions: 150 g a.i./ha (penoxsulam control 250 g(a.i.)/h)
Method: as §12, §3, §4, §5, §6, §7, §8, §9, §10

Gramineae = assay: as above; design: key: level scale; higher level = more weed left vs blank control; conditions: 150 g a.i./ha (penoxsulam control 250 g(a.i.)/h)
Method: as §12, §3, §4, §5, §6, §7, §8, §9, §10

Amaranthus retroflexus [12] = assay: Herbicidal activity test for indoor pre-emergence soil treatment; design: key: 1-9 levels; higher = more weed remaining vs blank control; conditions: 150 g a.i./ha, visual inspection 21 days after treatment
Method: as §2, §3, §4, §5, §6, §7, §8, §9, §10

Digitaria sanguinalis [13] = assay: as above; design: key: 1-9 levels; higher = more weed remaining vs blank control; conditions: 150 g a.i./ha, visual inspection 21 days after treatment
Method: as §2, §3, §4, §5, §6, §7, §8, §9, §10

Piemarker [14] = assay: as above; design: key: level 1-9; higher = more weed remaining vs blank control; conditions: 150 g a.i./ha, visual inspection 21 days after treatment
Method: as §2, §3, §4, §5, §6, §7, §8, §9, §10

Barnyard grass [15] = assay: as above; design: key: level 1-9; higher = more weed remaining vs blank control; conditions: 150 g a.i./ha, visual inspection 21 days after treatment
Method: as §2, §3, §4, §5, §6, §7, §8, §9, §10

green bristlegrass [16] = assay: as above; design: key: level 1-9; higher = more weed remaining vs blank control; conditions: 150 g a.i./ha, visual inspection 21 days after treatment
Method: as §2, §3, §4, §5, §6, §7, §8, §9, §10

SMILES	Herbicidal Activity Piemarker (Piemarker [1])	Herbicidal Activity Amaranthus retroflexus (Amaranthus retroflexus [2])	Herbicidal Activity Barnyard grass (Barnyard grass [3])	Herbicidal Activity Humulus scandens (Humulus scandens [4])	Herbicidal Activity Green bristlegrass (green bristlegrass [5])	Herbicidal Activity Digitaria sanguinalis (Digitaria sanguinalis [6])	Herbicidal Activity Humulus scandens (Humulus scandens [7])	Post-emergence weed control effect, Portulaca oleracea (Portulaca oleracea)	Post-emergence weed control effect, Amaranthus retroflexus (Amaranthus retroflexus [8])	Post-emergence weed control effect, Chenopodium album (Chenopodium album)	Post-emergence weed control effect, Barnyard grass (Barnyard grass [9])	Post-emergence weed control effect, Green bristlegrass (green bristlegrass [10])	Post-emergence weed control effect, Solanum nigrum (Solanum nigrum)	Post-emergence weed control effect, Goose grass (goosegrass)	Post-emergence weed control effect, Digitaria sanguinalis (Digitaria sanguinalis [11])	Post-emergence weed control effect, Nutgrass flatsedge (nutgrass flatsedge)	Post-emergence weed control effect, Acalypha australis (Acalypha australis)	Post-emergence weed control effect, Convolvulus arvensis (Convolvulus arvensis)	Herbicidal activity 15 days after treatment Broadleaf weed (Broadleaf weed)	Herbicidal activity 30 days after treatment Broadleaf weed (Broadleaf weed)	further results
COc1ccccc1C(=O)NCc1cc(F)cc(Cl)c1 [Compound A07, N-(3-chloro-5-fluorobenzyl)-2-methoxybenzamide]	1	1	1	1	2 (equivalent to 0 to 2.5% of the weed in the blank control area)	1	3 (equivalent to 2.6 to 5% of the weed in the blank control area)	1	1	1	2 (equivalent to 0 to 2.5% of the weed in the blank control area)	2 (equivalent to 0 to 2.5% of the weed in the blank control area)	2 (equivalent to 0 to 2.5% of the weed in the blank control area)	2 (equivalent to 0 to 2.5% of the weed in the blank control area)	2 (equivalent to 0 to 2.5% of the weed in the blank control area)	2 (equivalent to 0 to 2.5% of the weed in the blank control area)	2 (equivalent to 0 to 2.5% of the weed in the blank control area)	1	2 (equivalent to 0 to 2.5% of the weed in the blank control area)	1	Herbicidal activity 15 days after treatment Cyperaceae (Cyperaceae): 1; Herbicidal activity 30 days after treatment Cyperaceae (Cyperaceae): 2 (equivalent to 0 to 2.5% of the weed in the blank control area); Herbicidal activity 15 days after treatment Gramineae (Gramineae): 2 (equivalent to 0 to 2.5% of the weed in the blank control area); Herbicidal activity 30 days after treatment Gramineae (Gramineae): 2 (equivalent to 0 to 2.5% of the weed in the blank control area); Herbicidal Activity Amaranthus retroflexus (Amaranthus retroflexus [12]): 1; Herbicidal Activity Digitaria sanguinalis (Digitaria sanguinalis [13]): 1; Herbicidal Activity Piemarker (Piemarker [14]): 1; Herbicidal Activity Barnyard grass (Barnyard grass [15]): 1; Herbicidal Activity Green bristlegrass (green bristlegrass [16]): 2 (equivalent to 0 to 2.5% of the weed in the blank control area)
COc1ccccc1C(=O)NCc1cccc(Cl)c1 [Compound A09, N-(3-chlorobenzyl)-2-methoxybenzamide]	1	1	1	1	2 (equivalent to 0 to 2.5% of the weed in the blank control area)	1	3 (equivalent to 2.6 to 5% of the weed in the blank control area)	1	1	1	2 (equivalent to 0 to 2.5% of the weed in the blank control area)	2 (equivalent to 0 to 2.5% of the weed in the blank control area)	2 (equivalent to 0 to 2.5% of the weed in the blank control area)	1	2 (equivalent to 0 to 2.5% of the weed in the blank control area)	2 (equivalent to 0 to 2.5% of the weed in the blank control area)	2 (equivalent to 0 to 2.5% of the weed in the blank control area)	2 (equivalent to 0 to 2.5% of the weed in the blank control area)	2 (equivalent to 0 to 2.5% of the weed in the blank control area)	2 (equivalent to 0 to 2.5% of the weed in the blank control area)	Herbicidal activity 15 days after treatment Cyperaceae (Cyperaceae): 1; Herbicidal activity 30 days after treatment Cyperaceae (Cyperaceae): 2 (equivalent to 0 to 2.5% of the weed in the blank control area); Herbicidal activity 15 days after treatment Gramineae (Gramineae): 2 (equivalent to 0 to 2.5% of the weed in the blank control area); Herbicidal activity 30 days after treatment Gramineae (Gramineae): 2 (equivalent to 0 to 2.5% of the weed in the blank control area); Herbicidal Activity Amaranthus retroflexus (Amaranthus retroflexus [12]): 2 (equivalent to 0 to 2.5% of the weed in the blank control area); Herbicidal Activity Digitaria sanguinalis (Digitaria sanguinalis [13]): 2 (equivalent to 0 to 2.5% of the weed in the blank control area); Herbicidal Activity Piemarker (Piemarker [14]): 1; Herbicidal Activity Barnyard grass (Barnyard grass [15]): 1; Herbicidal Activity Green bristlegrass (green bristlegrass [16]): 2 (equivalent to 0 to 2.5% of the weed in the blank control area)

Source: patent publication US20220330549A1, “USE OF N-BENZYLBENZAMIDE-BASED COMPOUND AS HERBICIDE” (Northwest A&F University, priority 2020, published 2022)
